Patent US7871978B2, “Bone tropic peptides” (University of Virginia Patent Foundation, priority 2004, dated 2011)

Columns and labels:
[1] = system: bone and marrow tissue sections (mouse femur, rib); experiment: Biotinylated peptide binding to bone/marrow tissue sections, Avidin-FITC fluorescence; design: key to Localization of peptide binding: Bone/Marrow (tissue sections): ✓: Check marks indicate positive binding observed with FITC; −: a dash indicates a negative result
Description: Methods: Four-week old Swiss Webster mice were euthanized; the femurs were excised and decalcified in 0.25M EDTA in PBS solution for 5 days, and washed in PBS for 24 hours. The femoral shafts were obtained by cutting off the proximal and distal ends of the femur. The femoral shafts were placed in Tissue-Tek O.C.T. Compound (Sukura Finetek, Torrance, Calif.) and frozen at −20° C. overnight. Sections were cut at 10 μm serially with a cryomicrotome, rinsed with 1% BSA in PBS three times. To block non-specific reaction sections were incubated with Avidin/Biotin Blocking Kit (Vector Laboratories, Inc. Burlingame, Calif.) according to the manufacturer's instructions. Following another rinse with PBS, 150 μl 10 mM solution of each biotinylated peptide (L1, L2, L7, R1, R8) was added to the slides and incubated for 1 hour at room temperature. In negative controls, only PBS was added. After rewashes with 1% BSA, 150 μl of 1:50,000 dilution of Avidin-FITC was added to each slide and incubated overnight at 4° C.
The sections were washed with 1% BSA in PBS and mounted with Vectashield (Vector Laboratories Inc., Burlingame, Calif.). Fluorescence was visualized using a Nikon eclipse E600 microscope (Nikon, Melville, N.Y.) equipped with a 535 nm wavelength fluorescein filter. Images were obtained using a Sony DKC-5000 digital camera (Sony Electronics Inc.) and processed with Adobe Photoshop software (Adobe Systems Incorporated, San Jose, Calif.).
(§1) For localization of peptide binding to cells and tissue sections, biotinylated peptides were synthesized. Fluorescein-isothiocyanate (FITC) labeled Avidin was used to localize the peptides on cells in culture and in tissue sections in vitro by epiluminescence microscopy. In addition, the biotinylated peptides were detected at concentrations as low as 1 μM in slot blots.
Cryosections of decalcified femurs harvested from 4 week BALB/c mice were incubated with biotinylated peptide and Avidin-FITC. […] The distribution of fluorescence throughout the marrow was uneven. […] In control slides incubated with PBS without peptide, none of the cells could be detected by fluorescence (not shown). […]

bone and bone marrow = experiment: In vivo biopanning with 12-mer peptide phage display library; design: species or system BALB/c mice
Source text: The Ph.D.-12 Phage Display Peptide Library Kit (New England Biolabs, Beverly, Mass.) used in this study is based on a combinatorial library of random peptide 12-mers fused to a minor coat protein (pIII). […] The peptide is followed by a short spacer of four amino acid residues, the first three residues of which are glycine and the fourth of which is serine, and then the wild-type III sequence. The library consists of approximately 2.7×10^9 electroporated sequences, amplified once to yield approximately 55 copies of each sequence.
For in vivo biopanning, BALB/c mice 8 weeks of age were injected 3.4×10^10 pfu of phage into the heart. The animals were euthanized after 5 minutes, and the tissues (bone, bone marrow, kidney, liver, and spleen) were collected for analysis. The bound phage was eluted according the manufacturer's instructions. The eluted phage was titered, amplified, purified, and injected again at the same concentration.
The frequency of each peptide in bone and bone marrow was compared with its location in other tissues such as liver, kidney, lung, spleen, and brain. Thirteen unique peptide sequences eluted from bone and marrow were identified were identified by sequencing phage DNA. The peptides were synthesized using the polystyrene solid support on a Protein Technologies Symphony Multiple Channel Synthesizer.

[2] = system: human bone marrow endothelial cells (HBME); experiment: Peptide binding to HBME cells in culture (Avidin-FITC); design: key: ✓: Check marks indicate positive binding observed with FITC; −: a dash indicates a negative result
Description: as §1
(§2) Bone marrow cells isolated from mouse femur were lifted with ethylenediaminetetraacetic acid (EDTA) and trypsin, resuspended, and allowed to attach on fibronectin-coated chamber slides for Avidin-FITC staining. […] The D1 cell is a multipotential mesenchymal stem-like line that was isolated from bone marrow and shown to have the characteristics of osteoprogenitor cells. This cell line has been well established and used successfully in several in vitro and in vivo studies in our laboratory. Peptide binding to human bone marrow endothelial cells (HBME) and bovine aortic endothelial cells (BAEC) in culture was also tested using the same procedure.

[3] = system: bovine aortic endothelial cells (BAEC); experiment: Peptide binding to BAEC in culture (Avidin-FITC); design: key: ✓: Check marks indicate positive binding observed with FITC; −: a dash indicates a negative result
Description: as §1, §2

[4] = system: Bone marrow cells isolated from mouse femur; experiment: Peptide binding to bone marrow cells in culture (Avidin-FITC); design: key to Localization of peptide binding: Marrow (cells in culture): ✓: Check marks indicate positive binding observed with FITC; −: a dash indicates a negative result
Description: as §1, §2

[5] = system: Membrane and cytosol fractions from bovine aortic endothelial cells; experiment: Affinity chromatography of BAEC fractions on immobilized peptide; type: binding
Description: Membrane and cytosol fractions from human bone marrow endothelial cells and bovine aortic endothelial cells were prepared and used to identify the components from within these fractions that bind to the peptides using affinity chromatography). […] Cell surface nucleolin is present at higher concentrations in actively dividing cells and is down regulated in cells when they become quiescent. Nucleolin is the apparent cell surface receptor of E-coli intimin-gamma. Cell bound intimin has been proposed to trigger a host cell response similar to the extension of filipodia when cells bind to laminin. […] Table 3 provides a summary of peptide-binding partners (putative receptors) identified by affinity chromatography of cell lysates.

[6] = system: Unicortical femoral defects; experiment: Peptide-mediated osteogenesis in cortical bone defects (Example 8); type: in vivo, Fisher 344 rats; conditions: 100 mM peptide in gelfoam, two weeks postoperatively, versus gelfoam+PBS
Description: In an in vivo study, all 13 peptides at a concentration of 100 mM were tested for their ability to potentiate osteogenesis. A gelfoam cylinder 1.5 mm in diameter 2 mm in length was used as carrier for the peptides. Unicortical femoral defects 1.5 mm in diameter were created bilaterally in Fisher 344 rats; the left femoral defect was filled with gelfoam+PBS (Control), and the right femur with gelfoam+peptide. The samples were harvested and examined two weeks postoperatively. To examine the effect of peptide concentration on cortical bone regeneration, peptide L7 (SEQ ID NO:5) was used at 1, 5, and 20 mM. […] The time course of cortical bone repair with 20 mM L7 was examined at 5, 10, 15, and 20 days.

[7] = BALB/c mouse femur cryosections, biotinylated peptide
[8] = Swiss Webster mouse femur cryosections, 10 mM biotinylated peptide

Substance: SER-TYR-SER-GLN-MET-ASP-PRO-PRO-ARG-SER-LEU-PRO-GLY-GLY-GLY-SER (SYSQMDPPRSLPGGGS; listed as Homo sapiens) [Peptide R8]
- Cell shape preferentially recognized by peptide [1, 7]: recognized the round cells preferentially
- Extent of marrow cells detected by fluorescence [1, 7]: did not detect as many cells
- Localization of peptide binding: Bone/Marrow (tissue sections) ([1]; FITC): ✓
- Cell shape preferentially recognized by peptide [1, 8]: recognized the round cells preferentially
- Extent of marrow cells detected by fluorescence [1, 8]: did not detect as many cells
- PERCENT FREQUENCY (bone and bone marrow; phage eluted from bone and bone marrow): 24.1%
- PHAGE SEQUENCE FREQUENCY (number of times the sequence was found in a group of plaques) (bone and bone marrow; phage eluted from bone and bone marrow after repeated rounds): 7/29
- Localization of peptide binding: HBME [2]: ✓
- Localization of peptide binding: BAEC [3]: ✓
- Localization of peptide binding: Marrow (cells in culture) ([4]; FITC): ✓
- Binding to adherent cells from bone marrow blowouts ([4]; fibronectin-coated chamber slides, Avidin-FITC staining): showed detectable binding
- Binding partner from BAEC lysates ([5]; biotinylated peptide immobilized on avidin-agarose): vimentin was found to bind
- Identification of binding partners by affinity chromatography: BAEC ([5]; cell lysates): ✓Vimentin
- Effectiveness at stimulating osteogenesis and cortical bone repair [6]: most effective at stimulating osteogenesis and cortical bone repair
